Results from patent US6369035B1, “3,6-hemiketals from the class of 9A-azalides” (Pliva, farmaceutska industrja, dionicko …, priority 1997, dated 2002).
In brackets after ≈: the same amount, converted by molar mass. Like-named read-outs stand apart in the source and are kept apart here.

How the values were obtained:
[1] = system: Haemophilus influenzae clinical isolates (40); test: Antibacterial in vitro activity, MIC, clinical isolates; format: cell-based; conditions: 40 clinical isolates
Protocol: (§1) Antibacterial in vitro activity of the novel compounds of the general formula (I) and their pharmaceutically acceptable addition salts with inorganic or organic acids on a series of standard test-microorganisms was determined in a Mueller-Hinton medium (Difco-Laboratories, Detroit, Mich.) by a conventional method of double dilution in accordance with recommendations of NCCLS (The National Committee for Clinical Laboratory Standards). Each test microorganism was inoculated to the final inoculum size of 5×10^5 cfu/ml and the incubation was carried out in an […] manner at 37° C. during 18 hours. The MIC in the liquid medium was defined as the lowest concentration of an antibacterial agent inhibiting visible growth in microdilutional containers. Control organisms were obtained from ATCC (The American Type Culture Collection). All standards were identified by a standard procedure and were storaged at −70° C.

[2] = system: Staph. aureus. clinical isolates (77); test: as above; format: cell-based; conditions: 77 clinical isolates
Protocol: as §1

[3] = system: Enterococcus sp. clinical isolates (35); test: as above; format: cell-based; conditions: 35 clinical isolates
Protocol: as §1

[4] = system: Streptococcus pneumoniae clinical isolates (25); test: as above; format: cell-based; conditions: 25 clinical isolates
Protocol: as §1

[5] = system: S. epidermidis clinical isolates (20); test: as above; format: cell-based; conditions: 20 clinical isolates
Protocol: as §1

[6] = rat, in vivo, po, 20 mg/kg
S. aureus ATCC 29213 = test: Antibacterial in vitro activity, MIC by double dilution, standard strains; format: cell-based; conditions: 37° C., 18 hours
Protocol: as §1

[7] = system: Bacillus subtilis ATCC 6633; test: as above; format: cell-based; conditions: 37° C., 18 hours
Protocol: as §1

[8] = system: Escherichia coli ATCC 10536; test: as above; format: cell-based; conditions: 37° C., 18 hours
Protocol: as §1

[9] = system: S. eperidermidis ATCC 12228; test: as above; format: cell-based; conditions: Mueller-Hinton medium, 37° C., 18 hours
Protocol: as §1

M. luteus ATCC 9341 = test: as above; format: cell-based; conditions: 37° C., 18 hours
Protocol: as §1

[10] = system: Streptococcus faecalis ATCC 8043; test: as above; format: cell-based; conditions: 37° C., 18 hours
Protocol: as §1

B. cereus ATCC 11778 = test: as above; format: cell-based; conditions: 37° C., 18 hours
Protocol: as §1

[11] = system: Micrococcus flavus ATCC 10240; test: as above; format: cell-based; conditions: 37° C., 18 hours
Protocol: as §1

[12] = system: Staphylococcus aureus ATCC 6538 P; test: as above; format: cell-based; conditions: 37° C., 18 hours
Protocol: as §1

CC[C@H]1OC(=O)[C@H](C)[C@@H](O[C@H]2C[C@@](C)(OC)[C@@H](O)[C@H](C)O2)[C@H](C)[C@@H](O[C@@H]2O[C@H](C)C[C@H](N(C)C)[C@H]2O)[C@](C)(O)C[C@@H](C)CN(C)[C@H](C)[C@@H](O)[C@]1(C)OC [12-O-Methyl-azithromycin]
MIC 50% [1]: 0.12 µg/mL (≈ 0.157 µM) | MIC 90% [1]: 0.25 µg/mL (≈ 0.328 µM) | MIC Range [1]: 0.06 to 0.5 µg/mL | MIC 50% [2]: 0.25 µg/mL (≈ 0.328 µM) | MIC 90% [2]: 1 µg/mL (≈ 1.31 µM) | MIC Range [2]: 0.12 to 2 µg/mL | MIC 50% [3]: 0.5 µg/mL (≈ 0.655 µM) | MIC 90% [3]: 8 µg/mL (≈ 10.5 µM) | MIC Range [3]: 0.12 to 8 µg/mL | MIC 50% [4]: 0.03 µg/mL (≈ 0.0393 µM) | MIC 90% [4]: 0.12 µg/mL (≈ 0.157 µM) | MIC Range [4]: 0.03 to 0.12 µg/mL | MIC 50% [5]: 0.25 µg/mL (≈ 0.328 µM) | MIC 90% [5]: 4 µg/mL (≈ 5.24 µM) | MIC Range [5]: 0.12 to 8 µg/mL | Cmax (maximum substance concentration in serum) [6]: 248.8 ng/mL | absorption in the serum [6]: very fast absorbed | half-life [6]: 5.2 h | time at which the maximum substance concentration was achieved [6]: 2 h | time of secondary maximum after the application [6]: 4 h | total AUC [6]: 1993.4 ng·h/mL | MIC (S. aureus ATCC 29213; Mueller-Hinton medium): 0.25 µg/mL (≈ 0.328 µM) | MIC ([7]; Mueller-Hinton medium): 1 µg/mL (≈ 1.31 µM) | MIC ([8]; Mueller-Hinton medium): 0.5 µg/mL (≈ 0.655 µM) | MIC [9]: 0.03 µg/mL (≈ 0.0393 µM) | MIC (M. luteus ATCC 9341; Mueller-Hinton medium): 0.03 µg/mL (≈ 0.0393 µM) | MIC ([10]; Mueller-Hinton medium): 0.25 µg/mL (≈ 0.328 µM) | MIC (B. cereus ATCC 11778; Mueller-Hinton medium): 0.25 µg/mL (≈ 0.328 µM) | MIC ([11]; Mueller-Hinton medium): 0.12 µg/mL (≈ 0.157 µM) | MIC ([12]; Mueller-Hinton medium): 0.25 µg/mL (≈ 0.328 µM)

CC[C@H]1OC(=O)[C@H](C)[C@@H](O[C@H]2C[C@@](C)(OC)[C@@H](O)[C@H](C)O2)[C@H](C)[C@@H](O[C@@H]2O[C@H](C)C[C@H](N(C)C)[C@H]2O)[C@](C)(O)C[C@@H](C)CN(C)[C@H](C)[C@@H](O)[C@]1(C)O [Azithromycin, 9-deoxo-9a-methyl-9a-aza-9a-homoerythromycin, reference compound]
MIC50 [1]: 0.25 µg/mL (≈ 0.334 µM) | MIC90 [1]: 0.5 µg/mL (≈ 0.668 µM) | MIC Range [1]: 0.12 to 0.5 µg/mL | MIC Range [2]: 0.25 to 8 µg/mL | MIC50 ([2]; Staphylococcus aureus): 1 µg/mL (≈ 1.34 µM) | MIC90 ([2]; Staphylococcus aureus): 4 µg/mL (≈ 5.34 µM) | MIC50 [3]: 1 µg/mL (≈ 1.34 µM) | MIC90 [3]: 16 µg/mL (≈ 21.4 µM) | MIC Range [3]: 0.25 to 16 µg/mL | MIC50 [4]: 0.05 µg/mL (≈ 0.0668 µM) | MIC90 [4]: 0.12 µg/mL (≈ 0.16 µM) | MIC Range [4]: 0.03 to 0.25 µg/mL | MIC Range [5]: 0.25 to 16 µg/mL | MIC50 ([5]; Staphylococcus epidermidis): 0.25 µg/mL (≈ 0.334 µM) | MIC90 ([5]; Staphylococcus epidermidis): 8 µg/mL (≈ 10.7 µM) | MIC (S. aureus ATCC 29213; Staphylococcus aureus, ATCC29213, Mueller-Hinton medium, read-out: MIC): 0.25 µg/mL (≈ 0.334 µM) | MIC ([7]; ATCC6633, Mueller-Hinton medium, read-out: MIC): 4 µg/mL (≈ 5.34 µM) | MIC ([8]; ATCC10536, Mueller-Hinton medium, read-out: MIC): 1 µg/mL (≈ 1.34 µM) | MIC ([9]; read-out: MIC): 0.5 µg/mL (≈ 0.668 µM) | MIC (M. luteus ATCC 9341; Micrococcus luteus, ATCC9341, Mueller-Hinton medium, read-out: MIC): 0.06 µg/mL (≈ 0.0801 µM) | MIC ([10]; Enterococcus faecalis, ATCC8043, Mueller-Hinton medium, read-out: MIC): 0.5 µg/mL (≈ 0.668 µM) | MIC (B. cereus ATCC 11778; Bacillus cereus, ATCC11778, Mueller-Hinton medium, read-out: MIC): 1 µg/mL (≈ 1.34 µM) | MIC ([11]; ATCC10240, Mueller-Hinton medium, read-out: MIC): 0.5 µg/mL (≈ 0.668 µM) | MIC ([12]; ATCC6538, Mueller-Hinton medium, read-out: MIC): 1 µg/mL (≈ 1.34 µM)
